Data taken from patent publication US20200308619A1, “GENE CONSTRUCT AND BIOSENSOR FOR THE RAPID DETECTION OF AHL MOLECULES AND THE PATHOGENIC BACTERIA THAT PRODUCE SAME” (UNIVERSIDAD DE VALPARAISO, priority 2017, published 2020).

Test system: E. coli pUCPAO1RHL biosensor strain
Assay: Biosensor fluorescence emission (GFP) in response to AHL extract and copper
Type: cell-based, Escherichia coli
Conditions: copper by itself, no AHL
Protocol: The biosensing strain named E. coli pUCPAO1RHL that contains the gene construct of the invention, was used to evaluate its response to the presence of AHLs and the presence of copper. For the evaluation, AHLs were obtained from the bacterium Pseudomonas aeruginosa from a 12-hour bacterial culture in late exponential phase. For this, the supernatant was separated from the bacterial cells by centrifugation at 8,000 rpm for 15 minutes. An organic extraction with dichloromethane (DCM) from the supernatant was performed in a ratio of 70:30 (Supernatant: DCM). For this, 200 ml of supernatant and 85 ml of DCM were incorporated into a […] volume decantation flask. It was stirred vigorously, then left to settle at room temperature for 1 hour. […]
The biosensor strain (180 μL) was grown in the presence of 10 μL of AHL extract (obtained from the stationary phase of growth of P. aeruginosa) and in the presence of 500 μM of copper (such as CuSO4) in Luria Bertani liquid medium at 37° C. stirred in 96-well plates on a temperature controlled orbital shaker spectrofluorometer equipment (Tecan USA). During growth, turbidity was recorded at an absorbance of 600 nm and fluorescence at […] every 15 minutes, equivalent to one cycle of fluorescence emission measurement. […]

## O=S(=O)([O-])[O-].[Cu+2] [copper, CuSO4]
  inducing effect on fluorescence: did not show an obvious inducing effect of fluorescence
